# Assay results: PubChem BioAssay AID328 (DTP/NCI, 2004)
# Values joined by “and” are separate entries in the source; they are usually repeats but may differ in a detail not shown here. Identical values can stand only once. Toxic doses and inconclusive results are not listed.
# Tested on: BDF1 mice, P388 leukemia ip, median survival T/C
# Assay: NCI In Vivo Anticancer Drug Screen. Data for tumor model P388 Leukemia (intraperitoneal) in B6D2F1 (BDF1) mice
# Conditions: endpoint: median survival time, higher = longer survival
# Method in brief: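 Survival ratio, drug arm over vehicle arm, in mice with a transplanted tumour.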
# [1] = dose: 6.25 mg/kg/injection, schedule: Q01DX009 (ip), vehicle: saline
# [2] = dose: 12.5 mg/kg/injection, schedule: Q01DX009 (ip), vehicle: saline
# [3] = dose: 25.0 mg/kg/injection, schedule: Q04DX003 (ip), vehicle: saline
# [4] = dose: 50.0 mg/kg/injection, schedule: Q01DX009 (ip), vehicle: saline
# [5] = dose: 50.0 mg/kg/injection, schedule: Q04DX003 (ip), vehicle: saline
# [6] = dose: 100.0 mg/kg/injection, schedule: Q01DX009 (ip), vehicle: saline
# [7] = dose: 100.0 mg/kg/injection, schedule: Q04DX003 (ip), vehicle: saline
# [8] = dose: 200.0 mg/kg/injection, schedule: Q01DX009 (ip), vehicle: saline
# [9] = dose: 200.0 mg/kg/injection, schedule: Q04DX003 (ip), vehicle: saline
# [10] = dose: 400.0 mg/kg/injection, schedule: Q04DX003 (ip), vehicle: saline
compound,measurement,setting,value
CC(=O)c1c(O)c(C)c(O)c2c1OC1=CC(=O)C(C(C)=O)C(=O)C12C (stereo not given),T/C,"dose: 5.0 mg/kg/injection, schedule: Q01DX009 (ip), vehicle: gum acacia",100 % of control and 103 % of control
same,T/C,"dose: 10.0 mg/kg/injection, schedule: Q01DX009 (ip), vehicle: gum acacia",105 % of control and 108 % of control
same,T/C,"dose: 20.0 mg/kg/injection, schedule: Q01DX009 (ip), vehicle: gum acacia",107 % of control
same,T/C,"dose: 35.0 mg/kg/injection, schedule: Q01DX010 (ip), vehicle: saline",116 % of control
same,T/C,"dose: 40.0 mg/kg/injection, schedule: Q01DX009 (ip), vehicle: gum acacia",96 % of control and 105 % of control
same,T/C,"dose: 53.0 mg/kg/injection, schedule: Q01DX010 (ip), vehicle: saline",122 % of control
same,T/C,"dose: 79.0 mg/kg/injection, schedule: Q01DX010 (ip), vehicle: saline",122 % of control
same,T/C,"dose: 80.0 mg/kg/injection, schedule: Q01DX009 (ip), vehicle: gum acacia",103 % of control and 108 % of control
COc1ccc(C(C#N)CC(=O)c2ccc(OC)c(OCc3ccccc3)c2)cc1OC (stereo not given),T/C,[1],90 % of control
same,T/C,[2],95 % of control
same,T/C,"dose: 25.0 mg/kg/injection, schedule: Q01DX009 (ip), vehicle: saline",91 % of control
same,T/C,[3],114 % of control
same,T/C,[4],99 % of control
same,T/C,[5],96 % of control
same,T/C,[6],90 % of control
same,T/C,[7],96 % of control
same,T/C,[8],86 % of control
same,T/C,[9],107 % of control
same,T/C,"dose: 400.0 mg/kg/injection, schedule: Q01DX009 (ip), vehicle: saline",95 % of control
same,T/C,[10],100 % of control
O=C1N[C@@H]([C@H]2CC[C@H](Cl)CN2)C(=O)N[C@H]1[C@H]1CC[C@H](Cl)CN1,T/C,"dose: 0.1 mg/kg/injection, schedule: Q01DX010 (ip), vehicle: saline",154 % of control
same,T/C,"dose: 0.2 mg/kg/injection, schedule: Q01DX010 (ip), vehicle: saline",181 % of control
same,T/C,"dose: 0.4 mg/kg/injection, schedule: Q01DX010 (ip), vehicle: saline",227 % of control
same,T/C,"dose: 1.44 mg/kg/injection, schedule: Q04DX003 (ip), vehicle: saline",170 % of control
same,T/C,"dose: 1.44 mg/kg/injection, schedule: Q04DX003 (ip), vehicle: water",179 % of control
same,T/C,"dose: 2.4 mg/kg/injection, schedule: Q04DX003 (ip), vehicle: saline",184 % of control
same,T/C,"dose: 2.4 mg/kg/injection, schedule: Q04DX003 (ip), vehicle: water",192 % of control
same,T/C,"dose: 2.5 mg/kg/injection, schedule: Q01DX001 (ip), vehicle: saline",177 % of control
same,T/C,"dose: 4.0 mg/kg/injection, schedule: Q04DX003 (ip), vehicle: saline",252 % of control
same,T/C,"dose: 4.0 mg/kg/injection, schedule: Q04DX003 (ip), vehicle: water",259 % of control
same,T/C,"dose: 5.0 mg/kg/injection, schedule: Q01DX001 (ip), vehicle: saline",209 % of control
same,T/C,"dose: 6.67 mg/kg/injection, schedule: Q04DX003 (ip), vehicle: saline",118 % of control
same,T/C,"dose: 6.67 mg/kg/injection, schedule: Q04DX003 (ip), vehicle: water",118 % of control
Cn1c(=N)ccn(C2OC(CO)C(O)C2O)c1=O (stereo not given) (tested in a mixture with another compound),T/C,[9],111 % of control
same,T/C,[10],165 % of control
C(=NC12CC3CC(CC(C3)C1)C2)c1ccccc1,T/C,[3],105 % of control
same,T/C,[5],99 % of control
same,T/C,[7],107 % of control
same,T/C,[9],105 % of control
Cc1c2cc3c(c1O)C(=O)CC(O3)c1ccc(O)c(c1)-c1ccc(O)c(c1)C(=O)OCC1OC(O2)C(O)C(O)C1O (stereo not given),T/C,"dose: 0.13 mg/kg/injection, schedule: Q01DX009 (ip), vehicle: Klucel (hydroxypropylcellulose) (HPC)",109 % of control
same,T/C,"dose: 0.25 mg/kg/injection, schedule: Q01DX009 (ip), vehicle: Klucel (hydroxypropylcellulose) (HPC)",106 % of control
same,T/C,"dose: 0.5 mg/kg/injection, schedule: Q01DX009 (ip), vehicle: Klucel (hydroxypropylcellulose) (HPC)",112 % of control
same,T/C,"dose: 1.0 mg/kg/injection, schedule: Q01DX009 (ip), vehicle: Klucel (hydroxypropylcellulose) (HPC)",112 % of control
Cc1ccc(NC(=O)N(CCCl)N=O)cc1C,T/C,"dose: 6.6 mg/kg/injection, schedule: Q04DX003 (ip), vehicle: saline with Tween-80",159 % of control
same,T/C,"dose: 10.0 mg/kg/injection, schedule: Q04DX003 (ip), vehicle: saline with Tween-80",209 % of control
same,T/C,"dose: 15.0 mg/kg/injection, schedule: Q04DX003 (ip), vehicle: saline with Tween-80",204 % of control
O=S(=O)(OCC#CCOS(=O)(=O)c1ccc(Cl)c(Cl)c1)c1ccc(Cl)c(Cl)c1,T/C,"dose: 12.5 mg/kg/injection, schedule: Q01DX009 (ip), vehicle: Klucel (hydroxypropylcellulose) (HPC)",99 % of control
same,T/C,"dose: 25.0 mg/kg/injection, schedule: Q01DX009 (ip), vehicle: Klucel (hydroxypropylcellulose) (HPC)",112 % of control
same,T/C,"dose: 35.0 mg/kg/injection, schedule: Q01DX009 (ip), vehicle: Klucel (hydroxypropylcellulose) (HPC)",93 % of control
same,T/C,"dose: 50.0 mg/kg/injection, schedule: Q01DX009 (ip), vehicle: Klucel (hydroxypropylcellulose) (HPC)",87 % of control
same,T/C,"dose: 75.0 mg/kg/injection, schedule: Q01DX009 (ip), vehicle: Klucel (hydroxypropylcellulose) (HPC)",101 % of control
c1ccc(OCC2CO2)c(OCC2CO2)c1 (stereo not given),T/C,"dose: 60.0 mg/kg/injection, schedule: Q01DX005 (ip), vehicle: saline with Tween-80",157 % of control
same,T/C,"dose: 120.0 mg/kg/injection, schedule: Q01DX005 (ip), vehicle: saline with Tween-80",185 % of control
same,T/C,"dose: 240.0 mg/kg/injection, schedule: Q01DX005 (ip), vehicle: saline with Tween-80",171 % of control
N#Cc1ccc(OC(=O)c2ccc(N=C(N)N)cc2)cc1,T/C,[4],100 % of control
same,T/C,[6],104 % of control
same,T/C,[7],104 % of control
same,T/C,[8],90 % of control
same,T/C,[9],113 % of control
CC(=O)Nc1cscc1NC(C)=O,T/C,"dose: 50.0 mg/kg/injection, schedule: Q01DX009 (ip), vehicle: saline with Tween-80",110 % of control and 123 % of control
same,T/C,"dose: 100.0 mg/kg/injection, schedule: Q01DX009 (ip), vehicle: saline with Tween-80",119 % of control and 123 % of control
same,T/C,"dose: 200.0 mg/kg/injection, schedule: Q01DX009 (ip), vehicle: saline with Tween-80",123 % of control
CC[N+](C)(C)Cc1ccccc1,T/C,[1],106 % of control
same,T/C,[2],106 % of control
CCOC(=O)NCCCNC(=O)OCC,T/C,[7],115 % of control
same,T/C,[9],115 % of control
same,T/C,[10],105 % of control
CC(C)=CCC/C(C)=C/Cn1cnc2c(ncn2C2OC(CO)C(O)C2O)c1=O (stereo not given),T/C,"dose: 12.5 mg/kg/injection, schedule: Q04DX003 (ip), vehicle: saline",110 % of control
same,T/C,[3],105 % of control
same,T/C,[5],114 % of control
CC1(C)OC(COCCOCCOCCCO)C(COCCOCCOCCCO)O1 (stereo not given),T/C,"dose: 100.0 mg/kg/injection, schedule: Q01DX001 (ip), vehicle: saline",112 % of control
same,T/C,"dose: 100.0 mg/kg/injection, schedule: Q01DX001 (ip), vehicle: suspension in saline",100 % of control
same,T/C,"dose: 200.0 mg/kg/injection, schedule: Q01DX001 (ip), vehicle: saline",111 % of control
same,T/C,"dose: 200.0 mg/kg/injection, schedule: Q01DX001 (ip), vehicle: suspension in saline",98 % of control
same,T/C,"dose: 400.0 mg/kg/injection, schedule: Q01DX001 (ip), vehicle: suspension in saline",120 % of control
same,T/C,"dose: 800.0 mg/kg/injection, schedule: Q01DX001 (ip), vehicle: suspension in saline",100 % of control
N=c1ccn2c(n1)OC1C(OP(=O)(O)O)C(CO)OC12 (stereo not given),T/C,"dose: 52.0 mg/kg/injection, schedule: Q04DX003 (ip), vehicle: saline",109 % of control
same,T/C,"dose: 118.0 mg/kg/injection, schedule: Q04DX003 (ip), vehicle: saline",159 % of control
same,T/C,"dose: 177.0 mg/kg/injection, schedule: Q04DX003 (ip), vehicle: saline",172 % of control and 185 % of control
same,T/C,"dose: 266.0 mg/kg/injection, schedule: Q04DX003 (ip), vehicle: saline with Tween-80",172 % of control
same,T/C,"dose: 266.0 mg/kg/injection, schedule: Q04DX003 (ip), vehicle: saline",205 % of control
same,T/C,"dose: 400.0 mg/kg/injection, schedule: Q04DX003 (ip), vehicle: saline with Tween-80",181 % of control
same,T/C,[10],200 % of control
same,T/C,"dose: 600.0 mg/kg/injection, schedule: Q04DX003 (ip), vehicle: saline with Tween-80",200 % of control
same,T/C,"dose: 600.0 mg/kg/injection, schedule: Q04DX003 (ip), vehicle: saline",230 % of control
